Source: patent publication US20230321012A1 (priority 2021, published 2023)
Where “and” joins values, the source holds several entries; their conditions need not be identical. Equal entries are not always repeated.

What was measured:
[1] = Clinical safety and tolerability, dose-limiting toxicities (NCT03536728); type: in vivo
Text: Clinical Trial Outline. […] All solid tumor types are eligible for the trial. […] DFMO was delivered orally twice daily in gel capsules.
These DLTs involved vomiting, diarrhea and nausea, and inferred a potential dual drug targeting of the gastrointestinal (GI) tract in these patients. One patient experienced severe dehydration, requiring hospitalization. A similar observation was made in dogs in Aminex's 28-day toxicological testing. […] The clinical observations and the data obtained in dog studies, together, support the hypothesis that combined oral drug dosing levels and DFMO targeting of the GI tract are causing the intolerance.
In cohorts before Part 2, Cohort 4, 14 adults were treated at 1,200 mg or higher of AMXT 1501 daily, either once daily or BID, with no DLTs. A total of 18 patients were treated at 800 mg AMXT 1501 or higher daily with no DLTs. These patients included a couple of adult patients where Cmax values above 1,000 ng/mL AMXT 1501 plasma levels were observed, again with no DLTs observed.

[2] = test system: spermidine; assay: MALDI-FTICR imaging quantitation of PD marker spermidine in whole-body sections of Th-MYCN mice; type: in vivo, mouse; conditions: for Quantitation of spermidine in the whole-body section: Th-MYCN mice, one value per animal
Experimental: (§1) The lower limit of detection based on the calibration curve using labeled spermidine was 0.80 μg/g, while for spermine it was 1.10 μg/g.

[3] = test system: spermine; assay: MALDI-FTICR imaging quantitation of PD marker spermine in whole-body sections of Th-MYCN mice; type: in vivo, mouse
Experimental: as §1

[4] = raw determination, individual Th-MYCN mice, 96 h
[5] = raw determination, treatment group average, 96 h

CCCCCCCCCCCCCCCC(=O)NCCCC[C@@H](N)C(=O)NCCCNCCCCNCCCN [AMXT 1501, D-lys(palmitoyl)-spermine]
dose-limiting toxicities ([1]; 14 adults at 1,200 mg or higher of AMXT 1501 daily, QD or BID, cohorts before Part 2 Cohort 4): no DLTs
dose-limiting toxicities ([1]; 18 patients at 800 mg AMXT 1501 or higher daily): no DLTs
Quantitation of spermidine in the whole-body section ([2]; Eye): 3.21 µM
Quantitation of spermidine in the whole-body section ([2]; Intestine contents): 6.36 µM and 9.59 µM
Quantitation of spermidine in the whole-body section ([2]; Stomach contents): 2.05 µM and 0.00 µM
Quantitation of spermidine in the whole-body section ([2]; Tumor): 1.32 µM
Quantitation of spermidine in the whole-body section ([2]; White fat): 5.26 µM
spermidine level in tumor, comparison of groups ([2]; mouse, in vivo): lowest levels
Spermidine concentration in tumor, Values [2, 4]: BLOD and 1.32 μM
Spermidine concentration in tumor, Average [2, 5]: 1.32 µM
spermidine in eye ([2]; vehicle 9.14 μM): 3 µM
Quantitation of spermine in the whole-body section ([3]; Eye, Th-MYCN mice, one value per animal): 4.19 µM and 5.03 µM
spermine in lung ([3]; group average): low
spermine level in tumor, comparison of groups ([3]; mouse, in vivo): lowest levels
Spermine concentration in tumor, Value [3, 4]: BLOD
Spermine concentration in tumor, Average [3, 5]: BLOD
spermine in eye ([3]; vehicle 17.6 μM): around 5 μM
